Literature values in PMC4452912 (Viruses, 2015).

Tests used:
[1] = mouse, in vivo; cited from earlier work
DENV, HCV, and HIV = system: DENV, HCV, and HIV; set-up: method as in ref 3 = [3]; details: cited from earlier work
DENV-2 = system: DENV-2; set-up: method as in ref 16 = [16]; details: DENV-2 ADE mouse model; cited from earlier work

Row | SMILES | thymus effect [1] | concentrations required for broad-spectrum antiviral activity in vitro (DENV, HCV, and HIV) [µM] | dose range promoting survival (DENV-2) [mg/kg]
1 | CCCCN1C[C@H](O)[C@@H](O)[C@H](O)[C@H]1CO [NB-DNJ, N-butyl-deoxynojirimycin] | thymus weight loss | > 30 | –
2 | COCCCCCCCCCN1C[C@H](O)[C@@H](O)[C@H](O)[C@H]1CO [UV-4] | – | – | 10 to 20
